Holding throughout (type): cell-based
The target of test [1] is proteins of HEK293T cells transiently overexpressing caspase-6 (Homo sapiens, UniProt P47756). The settings on record: Probe; protein CAPZB P47756.
Test [2] addresses proteins of HEK293T cells transiently overexpressing caspase-6 (Homo sapiens, UniProt P35908). The settings on record: Probe; protein KRT2 P35908.
For test [3], the target named is proteins of HEK293T cells transiently overexpressing caspase-6 (Homo sapiens, UniProt Q9Y262). The settings on record: exp_ref Probe; protein EIF3L (Q9Y262); analysis C6.
The target in test [4] is proteins of HEK293T cells transiently overexpressing caspase-6 (Homo sapiens, UniProt P25788). The settings on record: Probe; protein PSMA3 P25788.
Test [5] concerns the target proteins of HEK293T cells transiently overexpressing caspase-6 (Homo sapiens, UniProt Q16658). The settings on record: exp_ref Probe; protein FSCN1 (Q16658); analysis C6.
The target of test [6] is proteins of HEK293T cells transiently overexpressing caspase-6 (Homo sapiens, UniProt Q15366). The settings on record: exp_ref Probe; protein PCBP2 (Q15366); analysis C6.
The target in test [7] is proteins of HEK293T cells transiently overexpressing caspase-6 (Homo sapiens, UniProt P14866). The settings on record: exp_ref Probe; protein HNRNPL (P14866); analysis C6.
Test [8] deals with proteins of HEK293T cells transiently overexpressing caspase-6 (Homo sapiens, UniProt P34897). The settings on record: Probe; protein SHMT2 P34897.
Test [9] has as its target proteins of HEK293T cells transiently overexpressing caspase-6 (Homo sapiens, UniProt P25705). The settings on record: exp_ref Probe; protein ATP5A1 (P25705); analysis C6.
Test [10] concerns the target T1, proteins of HEK293T cells transiently overexpressing caspase-6 (Homo sapiens, UniProt Q9UQ80).
T1 sequence (Q9UQ80 1-394): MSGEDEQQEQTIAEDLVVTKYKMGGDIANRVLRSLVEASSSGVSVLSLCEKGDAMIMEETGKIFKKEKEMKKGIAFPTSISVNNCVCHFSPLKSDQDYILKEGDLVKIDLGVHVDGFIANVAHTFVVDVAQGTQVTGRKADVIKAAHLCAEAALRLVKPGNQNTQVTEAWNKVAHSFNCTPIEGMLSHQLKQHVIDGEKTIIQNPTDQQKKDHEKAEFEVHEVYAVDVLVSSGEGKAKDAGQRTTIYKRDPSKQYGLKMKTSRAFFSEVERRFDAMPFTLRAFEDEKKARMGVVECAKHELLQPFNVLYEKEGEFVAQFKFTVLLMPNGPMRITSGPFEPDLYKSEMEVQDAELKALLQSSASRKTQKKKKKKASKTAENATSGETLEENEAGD
The settings on record: protein PA2G4 (Q9UQ80).

The target of test [11] is T2, proteins of HEK293T cells transiently overexpressing caspase-6 (Homo sapiens, UniProt Q14103).
T2 sequence (Q14103 1-355): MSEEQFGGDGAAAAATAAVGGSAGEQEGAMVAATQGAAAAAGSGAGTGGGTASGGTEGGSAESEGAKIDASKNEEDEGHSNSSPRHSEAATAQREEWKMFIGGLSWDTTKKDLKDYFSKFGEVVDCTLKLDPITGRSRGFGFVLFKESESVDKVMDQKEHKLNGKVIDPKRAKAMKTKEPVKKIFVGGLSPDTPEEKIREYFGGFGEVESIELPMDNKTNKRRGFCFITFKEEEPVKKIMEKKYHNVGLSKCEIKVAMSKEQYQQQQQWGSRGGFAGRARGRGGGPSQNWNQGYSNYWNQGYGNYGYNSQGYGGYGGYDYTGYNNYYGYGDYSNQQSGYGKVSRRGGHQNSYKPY
The settings on record: protein HNRNPD (Q14103).

In test [12] the target is proteins of HEK293T cells transiently overexpressing caspase-6 (Homo sapiens, UniProt P49411). The settings on record: exp_ref Probe; protein TUFM (P49411); analysis C6.
For test [13], the target named is T3, proteins of HEK293T cells transiently overexpressing caspase-6 (Homo sapiens, UniProt Q8NC51).
T3 sequence (Q8NC51 1-408): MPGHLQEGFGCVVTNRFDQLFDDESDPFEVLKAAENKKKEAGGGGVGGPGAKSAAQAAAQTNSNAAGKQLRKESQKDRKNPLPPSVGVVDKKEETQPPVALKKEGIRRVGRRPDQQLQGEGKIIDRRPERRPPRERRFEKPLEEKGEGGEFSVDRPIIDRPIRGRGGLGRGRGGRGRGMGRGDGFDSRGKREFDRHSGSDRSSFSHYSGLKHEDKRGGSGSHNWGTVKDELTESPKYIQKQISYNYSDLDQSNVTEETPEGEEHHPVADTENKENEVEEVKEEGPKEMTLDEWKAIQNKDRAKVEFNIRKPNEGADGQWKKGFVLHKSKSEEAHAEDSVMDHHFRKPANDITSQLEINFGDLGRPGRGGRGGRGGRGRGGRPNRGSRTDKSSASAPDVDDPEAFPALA

In test [14] the target is proteins of HEK293T cells transiently overexpressing caspase-6 (Homo sapiens, UniProt P49327). The settings on record: exp_ref Probe; protein FASN (P49327); analysis C6.
The target in test [15] is proteins of HEK293T cells transiently overexpressing caspase-6 (Homo sapiens, UniProt Q08211). The settings on record: exp_ref Probe; protein DHX9 (Q08211); analysis C6.
In test [16] the target is proteins of HEK293T cells transiently overexpressing caspase-6 (Homo sapiens, UniProt P04181). The settings on record: exp_ref Probe; protein OAT (P04181); analysis C6.
Test [17] addresses proteins of HEK293T cells transiently overexpressing caspase-6 (Homo sapiens, UniProt Q15393). The settings on record: exp_ref Probe; protein SF3B3 (Q15393); analysis C6.

Chain of proteins of HEK293T cells transiently overexpressing caspase-6 (Homo sapiens, UniProt P34897) (P34897 30-504): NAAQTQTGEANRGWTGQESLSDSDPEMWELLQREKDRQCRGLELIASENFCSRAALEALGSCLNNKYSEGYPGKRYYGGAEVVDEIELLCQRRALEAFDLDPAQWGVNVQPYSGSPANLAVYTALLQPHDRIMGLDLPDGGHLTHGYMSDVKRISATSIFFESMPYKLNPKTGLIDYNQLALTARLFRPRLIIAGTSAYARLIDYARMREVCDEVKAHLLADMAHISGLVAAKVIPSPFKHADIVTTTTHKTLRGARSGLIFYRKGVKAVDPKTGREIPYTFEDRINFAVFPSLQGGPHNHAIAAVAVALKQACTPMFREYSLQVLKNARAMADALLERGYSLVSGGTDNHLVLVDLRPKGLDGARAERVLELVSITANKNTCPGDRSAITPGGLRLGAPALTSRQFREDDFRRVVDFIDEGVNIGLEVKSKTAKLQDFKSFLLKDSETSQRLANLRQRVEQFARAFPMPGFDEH
Chain of proteins of HEK293T cells transiently overexpressing caspase-6 (Homo sapiens, UniProt P25705) (P25705 44-553): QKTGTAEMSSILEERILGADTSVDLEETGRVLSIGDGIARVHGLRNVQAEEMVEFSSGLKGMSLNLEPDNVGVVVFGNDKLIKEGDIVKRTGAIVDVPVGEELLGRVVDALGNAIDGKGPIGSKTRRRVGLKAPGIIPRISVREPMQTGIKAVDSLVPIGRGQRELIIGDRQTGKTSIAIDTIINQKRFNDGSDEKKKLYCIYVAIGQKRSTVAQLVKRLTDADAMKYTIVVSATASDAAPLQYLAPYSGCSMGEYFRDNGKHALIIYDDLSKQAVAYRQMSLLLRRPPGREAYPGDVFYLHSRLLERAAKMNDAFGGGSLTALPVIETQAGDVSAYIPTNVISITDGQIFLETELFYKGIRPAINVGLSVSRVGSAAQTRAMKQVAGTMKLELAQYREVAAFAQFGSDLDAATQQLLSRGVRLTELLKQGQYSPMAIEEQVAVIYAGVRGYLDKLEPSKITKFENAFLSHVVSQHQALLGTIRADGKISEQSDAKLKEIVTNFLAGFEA
Chain of proteins of HEK293T cells transiently overexpressing caspase-6 (Homo sapiens, UniProt Q15393) (Q15393 whole entry): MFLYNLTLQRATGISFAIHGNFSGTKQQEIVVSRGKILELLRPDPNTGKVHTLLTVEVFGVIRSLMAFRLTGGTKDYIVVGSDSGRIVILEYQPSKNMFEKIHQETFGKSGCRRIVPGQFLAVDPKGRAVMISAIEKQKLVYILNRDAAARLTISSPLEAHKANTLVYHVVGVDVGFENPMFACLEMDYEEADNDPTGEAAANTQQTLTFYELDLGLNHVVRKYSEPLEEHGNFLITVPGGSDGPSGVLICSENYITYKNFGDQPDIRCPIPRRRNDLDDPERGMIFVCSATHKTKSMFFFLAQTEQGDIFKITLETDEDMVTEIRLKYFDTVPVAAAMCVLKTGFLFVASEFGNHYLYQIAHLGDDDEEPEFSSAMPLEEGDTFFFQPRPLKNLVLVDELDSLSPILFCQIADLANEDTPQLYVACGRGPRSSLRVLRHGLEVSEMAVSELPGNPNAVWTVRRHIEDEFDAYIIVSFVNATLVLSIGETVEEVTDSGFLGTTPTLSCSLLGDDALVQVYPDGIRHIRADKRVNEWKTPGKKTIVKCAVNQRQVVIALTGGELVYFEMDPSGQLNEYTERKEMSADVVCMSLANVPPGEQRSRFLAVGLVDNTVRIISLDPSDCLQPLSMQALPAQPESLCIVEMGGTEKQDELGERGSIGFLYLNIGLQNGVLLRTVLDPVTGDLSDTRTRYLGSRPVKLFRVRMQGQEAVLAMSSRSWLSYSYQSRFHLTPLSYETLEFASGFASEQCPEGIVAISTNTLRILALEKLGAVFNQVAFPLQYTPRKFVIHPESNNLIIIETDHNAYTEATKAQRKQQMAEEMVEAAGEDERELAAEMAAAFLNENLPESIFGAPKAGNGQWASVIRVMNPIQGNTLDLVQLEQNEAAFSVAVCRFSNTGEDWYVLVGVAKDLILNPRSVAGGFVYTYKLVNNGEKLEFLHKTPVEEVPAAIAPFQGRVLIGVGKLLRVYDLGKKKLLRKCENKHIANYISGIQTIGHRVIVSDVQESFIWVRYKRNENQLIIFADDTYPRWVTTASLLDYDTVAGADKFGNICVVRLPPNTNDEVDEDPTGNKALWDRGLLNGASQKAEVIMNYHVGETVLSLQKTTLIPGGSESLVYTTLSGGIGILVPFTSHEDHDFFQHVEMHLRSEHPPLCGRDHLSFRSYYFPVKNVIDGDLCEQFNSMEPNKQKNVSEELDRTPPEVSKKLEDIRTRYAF
Chain of proteins of HEK293T cells transiently overexpressing caspase-6 (Homo sapiens, UniProt P47756) (P47756 whole entry): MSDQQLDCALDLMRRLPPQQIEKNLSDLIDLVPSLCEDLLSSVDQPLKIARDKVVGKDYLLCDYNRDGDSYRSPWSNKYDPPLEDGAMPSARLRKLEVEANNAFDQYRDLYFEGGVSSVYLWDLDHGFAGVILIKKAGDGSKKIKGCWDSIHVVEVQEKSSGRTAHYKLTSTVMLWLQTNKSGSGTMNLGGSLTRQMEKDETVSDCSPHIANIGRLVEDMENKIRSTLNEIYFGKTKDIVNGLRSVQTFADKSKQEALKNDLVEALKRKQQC
Chain of proteins of HEK293T cells transiently overexpressing caspase-6 (Homo sapiens, UniProt P04181) (P04181 26-439): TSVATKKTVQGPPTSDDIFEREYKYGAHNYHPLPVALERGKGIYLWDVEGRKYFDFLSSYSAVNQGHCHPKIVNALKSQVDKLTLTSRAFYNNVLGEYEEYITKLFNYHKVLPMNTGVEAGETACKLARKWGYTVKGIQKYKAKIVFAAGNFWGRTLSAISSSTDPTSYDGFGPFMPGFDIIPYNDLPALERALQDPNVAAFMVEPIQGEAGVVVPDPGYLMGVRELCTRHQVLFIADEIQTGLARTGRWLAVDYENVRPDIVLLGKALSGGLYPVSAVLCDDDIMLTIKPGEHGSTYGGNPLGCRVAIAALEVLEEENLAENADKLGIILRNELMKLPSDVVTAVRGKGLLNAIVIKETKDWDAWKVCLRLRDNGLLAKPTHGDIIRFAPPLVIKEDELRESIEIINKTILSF
Chain of proteins of HEK293T cells transiently overexpressing caspase-6 (Homo sapiens, UniProt Q08211) (Q08211 whole entry): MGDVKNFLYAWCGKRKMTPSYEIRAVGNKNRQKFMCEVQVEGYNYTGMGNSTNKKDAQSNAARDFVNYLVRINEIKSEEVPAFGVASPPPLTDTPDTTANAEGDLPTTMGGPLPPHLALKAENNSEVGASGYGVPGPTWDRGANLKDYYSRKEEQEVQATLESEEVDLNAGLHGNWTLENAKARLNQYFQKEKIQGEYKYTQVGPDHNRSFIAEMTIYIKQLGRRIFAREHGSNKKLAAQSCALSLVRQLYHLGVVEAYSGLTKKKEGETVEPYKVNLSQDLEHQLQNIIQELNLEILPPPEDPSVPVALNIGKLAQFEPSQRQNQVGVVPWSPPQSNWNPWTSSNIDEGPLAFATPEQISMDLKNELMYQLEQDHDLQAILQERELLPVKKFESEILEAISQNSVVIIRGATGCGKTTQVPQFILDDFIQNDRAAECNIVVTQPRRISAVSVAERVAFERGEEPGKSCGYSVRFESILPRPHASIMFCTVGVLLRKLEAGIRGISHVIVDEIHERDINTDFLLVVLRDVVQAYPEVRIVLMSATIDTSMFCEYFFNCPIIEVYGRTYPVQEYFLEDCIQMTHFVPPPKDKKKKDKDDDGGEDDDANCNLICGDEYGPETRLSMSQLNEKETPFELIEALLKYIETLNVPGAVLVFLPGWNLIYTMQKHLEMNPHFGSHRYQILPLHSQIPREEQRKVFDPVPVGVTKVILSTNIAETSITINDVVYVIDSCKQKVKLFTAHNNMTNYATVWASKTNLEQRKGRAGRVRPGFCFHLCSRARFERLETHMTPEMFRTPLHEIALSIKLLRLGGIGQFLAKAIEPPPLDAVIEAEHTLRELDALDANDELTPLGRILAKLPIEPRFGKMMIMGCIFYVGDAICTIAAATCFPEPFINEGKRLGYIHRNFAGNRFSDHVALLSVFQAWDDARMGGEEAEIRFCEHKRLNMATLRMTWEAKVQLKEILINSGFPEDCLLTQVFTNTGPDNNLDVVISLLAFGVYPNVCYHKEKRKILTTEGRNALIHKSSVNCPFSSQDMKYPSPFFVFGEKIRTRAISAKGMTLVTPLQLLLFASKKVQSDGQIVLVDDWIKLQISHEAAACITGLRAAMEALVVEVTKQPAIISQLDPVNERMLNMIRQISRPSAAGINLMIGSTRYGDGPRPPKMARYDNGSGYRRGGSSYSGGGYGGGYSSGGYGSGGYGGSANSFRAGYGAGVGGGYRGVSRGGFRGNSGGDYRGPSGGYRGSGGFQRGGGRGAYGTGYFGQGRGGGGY
Chain of proteins of HEK293T cells transiently overexpressing caspase-6 (Homo sapiens, UniProt P14866) (P14866 whole entry): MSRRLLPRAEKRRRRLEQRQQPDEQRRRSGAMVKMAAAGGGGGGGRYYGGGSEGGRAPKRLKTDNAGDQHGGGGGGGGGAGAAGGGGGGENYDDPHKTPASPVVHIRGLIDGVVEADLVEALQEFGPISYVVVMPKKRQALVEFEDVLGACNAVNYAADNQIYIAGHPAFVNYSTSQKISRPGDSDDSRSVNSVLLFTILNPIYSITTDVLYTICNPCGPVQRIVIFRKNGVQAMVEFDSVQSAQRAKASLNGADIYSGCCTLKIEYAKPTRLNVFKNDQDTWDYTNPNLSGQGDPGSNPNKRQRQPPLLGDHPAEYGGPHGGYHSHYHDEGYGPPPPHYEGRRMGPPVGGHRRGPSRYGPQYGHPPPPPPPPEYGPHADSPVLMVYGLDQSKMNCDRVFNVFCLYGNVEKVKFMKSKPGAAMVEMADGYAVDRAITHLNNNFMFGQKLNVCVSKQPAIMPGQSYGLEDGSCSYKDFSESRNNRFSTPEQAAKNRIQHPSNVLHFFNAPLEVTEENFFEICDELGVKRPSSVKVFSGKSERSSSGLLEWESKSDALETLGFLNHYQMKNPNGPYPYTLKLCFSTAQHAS
Chain of proteins of HEK293T cells transiently overexpressing caspase-6 (Homo sapiens, UniProt P25788) (P25788 whole entry): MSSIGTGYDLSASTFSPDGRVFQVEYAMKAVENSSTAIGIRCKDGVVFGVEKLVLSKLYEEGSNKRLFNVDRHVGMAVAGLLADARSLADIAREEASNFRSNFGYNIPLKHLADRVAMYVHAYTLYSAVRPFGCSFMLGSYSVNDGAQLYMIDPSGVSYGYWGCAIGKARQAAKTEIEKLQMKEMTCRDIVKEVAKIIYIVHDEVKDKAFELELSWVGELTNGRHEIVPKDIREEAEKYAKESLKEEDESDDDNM

As to `C#CCOc1ccc([C@@H]2C[C@@H](C(=O)Nc3ccc(OC(F)(F)F)cc3)CN(S(=O)(=O)C=C)C2)cc1` (relative stereo) [13-t], the enrich.exp.med in test [1] is given as -0.5086; in [2], -8.257; in [3] it was 0.2171; in [4] it was -2.444; in [5] it was 0.2175; in test [6], 0.5184. Further, the enrich.exp.med in test [7] is listed as 0.1244; in test [8] it was -2.762; in test [9], -0.052; in [10] (exp_ref Probe, analysis C6), 1.389; in test [11] (exp_ref Probe, analysis C6), -0.3533; in test [12] it was 0.04694. In addition, the enrich.exp.med in test [13] (Probe, protein SERBP1 Q8NC51) is -1.6881; in [14], -0.2577; in test [15], 0.006951; in test [16] it was 1.012; in test [17] it was -0.1408. For the same compound, the enrich.exp.med.lin in test [10] was found to be 2.618; in test [11] it was 0.7828; in test [13] (protein SERBP1 (Q8NC51)), 0.3103. In addition, the enrich.exp.med.log2 is 1.389 in test [10], -0.3533 in test [11] and -1.6881 in test [13] (protein SERBP1 (Q8NC51)).

The record behind these values is PMC10176470, “Engaging a Non-catalytic Cysteine Residue Drives Potent and Selective Inhibition of Caspase-6” (Journal of the American Chemical Society, 2023).
